From patent publication US12491217B2, “Compositions and methods for promoting healthy neural development in an unborn baby” (The Regents of the University of California, priority 2019, dated 2025)
Structures can show the parent of a compound that is named as a salt.

System: thalamic explants from E14.5 embryos of ABX-treated dams
Assay: Axon outgrowth assay with individual metabolite supplementation
Type: cell-based, C57Bl/6J mice
Settings: for Length of ABX thalamic axons proximal to hypothalamus / Number of ABX thalamic axons proximal to hypothalamus: ABX thalamic + ABX hypothalamic explant; for Length of ABX thalamic axons proximal to hypothalamus / Number of ABX thalamic axons proximal to hypothalamus / Length of axons proximal to striatal explant: 1 nM, 100 nM, 10 uM; for Length of axons proximal to striatal explant / Number of axons per 200 μm of thalamic perimeter proximal to striatal explant: ABX thalamic + ABX striatal explant, 48 hrs; for Number of axons per 200 μm of thalamic perimeter proximal to striatal explant: physiologically-relevant concentrations (1 nM, 100 nM, 10 uM)
Method: Dams were sacrificed on E14.5 by cervical dislocation to preclude confounding effects of CO2 on maternal and fetal physiology. Thalamic, striatal, and hypothalamic explants were isolated from E14.5 embryonic brains and transferred to ice-cold HBSS (Invitrogen). Explants were sliced to ˜500 μm and placed on a thin layer of 50 μl BD Matrigel (Beckton Dickinson) on a 15 mm coverslip. Each coverslip contained a thalamic explant at the center and a striatal and hypothalamic explant on each side, at 1 mm equidistant from the thalamic explant. Explants were incubated in warmed neurobasal complete media containing 1× neurobasal medium (Thermofisher Scientific), 1× GlutaMax (Thermofisher Scientific), and 2% B-27 (Thermofisher Scientific) for 48 hrs at 37° C., and fed with fresh media every 24 hrs. After 48 hrs, media was gently aspirated and replaced with 4% PFA for 1 hr and processed for immunofluorescence staining with 1:500 (3 tubulin III anti-mouse antibody (EMD Millipore MAB1637). Axons were imaged using a Leica DMi8 epifluorescence microscope and quantified using Fiji software^78. Axon numbers were quantified per 200 μm of thalamus at a distance of 200 μm from the thalamus. Length of axons was quantified by averaging length of the 10 longest axons proximal to striatum or hypothalamus. Data for number and length of axons in the explant co-culture system was normalized by subtraction of data from monoculture of thalamic explants from the corresponding experimental group.
Thalamic, striatal, and hypothalamic explants from ABX-treated dams were harvested and cultured as described in the “axon outgrowth assay” section above. For metabolite treatment, BD Matrigel was supplemented with […], 100 nM, or 1 nM of trimethylamine-N-oxide (TMAO), 5-aminovalerate (5-AV), imidazole propionate (IP), 3-indoxyl-sulfate (3-IS), or hippurate (llip)^48,79-81. 5-aminovalerate is a precursor to N,N,N-trimethyl-5-aminovalerate (TMAV), which is not commercially available, and both are implicated in carnitine metabolism^82,83. Metabolite concentrations were determined as physiologically relevant, based on reported concentrations detected in blood and/or cerebrum from the mouse multiple tissue metabolomic database (MMIvIDB), human metabolome database (HMDB) and existing literature^48,79-81. Axons were stained, imaged and analyzed as described in the “axon outgrowth assay” section above.

Structure (SMILES)	Length of ABX thalamic axons proximal to hypothalamus	Number of ABX thalamic axons proximal to hypothalamus	Length of axons proximal to striatal explant	Number of axons per 200 μm of thalamic perimeter proximal to striatal explant
O=S(=O)(O)Oc1c[nH]c2ccccc12 [3-IS, 3-indoxyl sulfate]	No statistically significant changes	No statistically significant changes	modest, but not statistically significant, increases in axon length	but not 3-IS, significantly increased axon number
NCCCCC(=O)O [5-AV, 5-aminovalerate]	No statistically significant changes	No statistically significant changes	significantly increased axon length	significantly increased axon number to levels seen in fetal brain explants from embryos of SPF dams
O=C(O)CNC(=O)c1ccccc1 [HIP, hippurate]	No statistically significant changes	No statistically significant changes	no effect	significantly increased axon number to levels seen in fetal brain explants from embryos of SPF dams
O=C(O)CCc1cnc[nH]1 [IP, imidazole propionate]	No statistically significant changes	No statistically significant changes	significantly increased axon length	significantly increased axon number to levels seen in fetal brain explants from embryos of SPF dams
C[N+](C)(C)[O-] [TMAO, trimethylamine-N-oxide]	No statistically significant changes	No statistically significant changes	modest, but not statistically significant, increases in axon length	significantly increased axon number to levels seen in fetal brain explants from embryos of SPF dams
